Key:
Type in all cases: in vivo
[1] = system: Matricaria inodora; test: Herbicidal action post-emergence (greenhouse pot trial); details: application rate 20 g/ha, scored visually after about 3 weeks vs untreated controls
Experimental: (§1) Seeds of mono- and dicotyledonous weed plants and crop plants are laid out in sandy loam soil in plastic or wood-fiber pots, covered with earth and grown under controlled growth conditions in a greenhouse. 2 to 3 weeks after sowing, the trial plants are treated at the one-leaf stage. The compounds of the invention formulated in the form of wettable powders (WP) or emulsion concentrates (EC) were then sprayed onto the green parts of the plant as an aqueous suspension or emulsion with addition of 0.5% additive at a water application rate equivalent to 600 L/ha. After the trial plants had stood for about 3 weeks in the greenhouse, under optimal growth conditions, the effect of the preparations was scored visually by comparison with untreated controls. For example, 100% efficacy=plants have died, 0% efficacy=like control plants. Tables A1 to A15 below show the efficacies of selected compounds of the general formula (I) according to tables I.1 to I.60 on various harmful plants and an application rate corresponding to 80 g/ha or lower that were obtained by the aforementioned trial method.

[2] = system: Stellaria media; test: as above; details: application rate 20 g/ha, scored visually after about 3 weeks vs untreated controls
Experimental: as §1

[3] = system: Amaranthus retroflexus; test: as above; details: application rate 20 g/ha, scored visually after about 3 weeks vs untreated controls
Experimental: as §1

[4] = system: Pharbitis purpurea; test: as above; details: application rate 20 g/ha
Experimental: as §1

[5] = system: Abutilon theophrasti; test: as above; details: application rate 20 g/ha, scored visually after about 3 weeks vs untreated controls
Experimental: as §1

[6] = system: Polygonum convolvulus; test: as above; details: application rate 20 g/ha, scored visually after about 3 weeks vs untreated controls
Experimental: as §1

[7] = system: Veronica persica; test: as above; details: application rate 20 g/ha
Experimental: as §1

[8] = system: Viola tricolor; test: as above; details: application rate 20 g/ha
Experimental: as §1

[9] = system: Triticum aestivum; test: Crop compatibility post-emergence (greenhouse pot trial)
Experimental: as §1, with “plants.” for “plants. Tables A1 to A15 below show the efficacies of selected compounds of the general formula (I) according to tables I.1 to I.60 on various harmful plants and an application rate corresponding to 80 g/ha or lower that were obtained by the aforementioned trial method.”
(§2) Crop plant compatibilities were also scored correspondingly.
(§3) The effects observed are reported here on selected crop plants by comparison with the untreated controls (values in %).

[10] = system: Oryza sativa; test: as above
Experimental: as §1, with “plants.” for “plants. Tables A1 to A15 below show the efficacies of selected compounds of the general formula (I) according to tables I.1 to I.60 on various harmful plants and an application rate corresponding to 80 g/ha or lower that were obtained by the aforementioned trial method.”
as §2, §3

[11] = system: Digitaria sanguinalis; test: Herbicidal action post-emergence (greenhouse pot trial); details: application rate 20 g/ha
Experimental: as §1

[12] = system: Echinochloa crus-galli; test: as above; details: application rate 20 g/ha, scored visually after about 3 weeks vs untreated controls
Experimental: as §1

[13] = system: Setaria viridis; test: as above; details: application rate 20 g/ha, scored visually after about 3 weeks vs untreated controls
Experimental: as §1

Compound | Matricaria inodora (Efficacy in %) [1] [%] | Stellaria media (Efficacy in %) [2] [%] | Amaranthus retroflexus (Efficacy in %) [3] [%] | Pharbitis purpurea (Efficacy in %) [4] [%] | Abutilon theophrasti (Efficacy in %) [5] [%] | Polygonum convolvulus (Efficacy in %) [6] [%] | Veronica persica (Efficacy in %) [7] [%] | Viola tricolor (Efficacy in %) [8] [%] | Triticum aestivum (Efficacy in %) ([9]; application rate 20 g/ha) [%] | Oryza sativa (Efficacy in %) ([10]; application rate 20 g/ha) [%] | Digitaria sanguinalis (Efficacy in %) [11] [%] | Echinochloa crus-galli (Efficacy in %) [12] [%] | Triticum aestivum (Efficacy in %) ([9]; application rate 5 g/ha) [%] | Setaria viridis (Efficacy in %) [13] [%] | Oryza sativa (Efficacy in %) ([10]; application rate 5 g/ha) [%]
CC1CC(COC(=O)C(C)(C)CSc2cc(-n3c(=O)cc(C(F)(F)F)n(C)c3=O)c(F)cc2Cl)CO1 (stereo not shown) [I.48-73] | 80 | 100 | 100 | 100 | 100 | 80 | 100 | 100 | 0 | 0 |  |  |  |  | 
CC(Sc1cc(-n2c(=O)cc(C(F)(F)F)n(C)c2=O)c(F)cc1Cl)C(=O)NCCCOCc1ccccc1 (stereo not shown) [I.1-180] | 100 | 90 | 100 | 100 | 100 | 100 | 100 | 100 | 20 | 0 |  |  |  |  | 
Cn1c(C(F)(F)F)cc(=O)n(-c2cc(SCC(C)(C)C(=O)OCC3CCCCO3)c(Cl)cc2F)c1=O (stereo not shown) [I.48-91] | 100 | 100 | 100 | 100 | 100 | 100 | 100 | 100 |  |  | 100 | 100 | 20 |  | 
Cn1c(C(F)(F)F)cc(=O)n(-c2cc(SCC(C)(C)C(=O)OCC3CCCS3)c(Cl)cc2F)c1=O (stereo not shown) [I.48-81] | 100 | 100 | 100 | 100 | 100 | 100 | 100 | 100 | 20 |  | 100 | 90 |  |  | 
CCC(Sc1cc(-n2c(=O)cc(C(F)(F)F)n(C)c2=O)c(F)cc1Cl)C(=O)OCC1COC(C)C1 (stereo not shown) [I.2-73] | 100 | 100 | 100 |  | 100 | 100 | 100 | 100 |  | 10 |  |  |  | 90 | 
CC(CC(=O)OCC1CCOC1)Sc1cc(-n2c(=O)cc(C(F)(F)F)n(C)c2=O)c(F)cc1Cl (stereo not shown) [I.49-72] | 90 |  | 100 |  | 100 |  | 100 | 100 |  | 10 |  |  |  |  | 
CC(CC(=O)OCC1CCCO1)Sc1cc(-n2c(=O)cc(C(F)(F)F)n(C)c2=O)c(F)cc1Cl (stereo not shown) [I.49-71] | 100 | 100 | 100 | 100 | 100 | 100 | 100 | 100 | 20 | 10 |  |  |  |  | 
Cc1c(C(F)(F)F)n(C)c(=O)n(-c2cc(SCC(C)(C)C(=O)NCC3CCCCO3)c(Cl)cc2F)c1=O (stereo not shown) [I.54-241] |  | 80 | 100 |  | 100 | 100 | 100 |  | 0 | 0 | 80 |  |  | 100 | 
CCC(C)C(Sc1cc(-n2c(=O)cc(C(F)(F)F)n(C)c2=O)c(F)cc1Cl)C(=O)OCC1CCCCO1 (stereo not shown) [I.5-91] | 90 |  | 100 | 100 | 100 | 90 | 100 | 100 | 10 |  |  | 80 |  | 90 | 
CC(CC(=O)NCC1CCCO1)Sc1cc(-n2c(=O)cc(C(F)(F)F)n(C)c2=O)c(F)cc1Cl (stereo not shown) [I.49-221] | 90 | 90 | 100 | 100 | 100 | 100 | 100 |  |  | 10 |  |  |  |  | 
CC(Sc1cc(-n2c(=O)cc(C(F)(F)F)n(C)c2=O)c(F)cc1Cl)C(=O)NCC1COCCO1 (stereo not shown) [I.1-331] | 90 | 80 | 100 |  | 100 |  | 100 | 100 |  | 10 |  |  |  |  | 
Cc1c(C(F)(F)F)n(C)c(=O)n(-c2cc(SC(CC(C)C)C(=O)NCC3CCCO3)c(Cl)cc2F)c1=O (stereo not shown) [I.14-221] | 80 |  | 100 | 100 | 90 | 80 | 100 | 100 | 20 | 10 |  |  |  |  | 
CC(Sc1cc(-n2c(=O)cc(C(F)(F)F)n(C)c2=O)c(F)cc1Cl)C(=O)NC1CCCOC1 (stereo not shown) [I.1-276] | 100 | 100 | 100 |  | 100 | 100 | 100 | 100 |  |  |  |  |  | 100 | 10
CC(Sc1cc(-n2c(=O)cc(C(F)(F)F)n(C)c2=O)c(F)cc1Cl)C(=O)NCC1CCCCO1 (stereo not shown) [I.1-241] | 100 | 100 | 100 |  | 100 | 100 | 100 | 100 |  | 10 | 100 |  | 20 | 100 | 
CCC(C)C(Sc1cc(-n2c(=O)cc(C(F)(F)F)n(C)c2=O)c(F)cc1Cl)C(=O)OCC1CCOC1 (stereo not shown) [I.5-72] | 90 |  | 100 | 100 | 100 | 90 | 100 | 100 | 20 |  | 100 | 90 |  | 80 | 
Cn1c(C(F)(F)F)cc(=O)n(-c2cc(SCC(C)(C)C(=O)OCC3CCSC3)c(Cl)cc2F)c1=O (stereo not shown) [I.48-82, Tetrahydrothiophen-3-ylmethyl 3-({2-chloro-4-fluoro-5-[3-methyl-2,6-dioxo-4-(trifluoromethyl)-3,6-dihydropyrimidin-1(2H)-yl]phenyl}sulfanyl)-2,2-dimethylpropanoate] |  |  | 100 |  | 100 | 100 |  |  |  |  |  |  | 0 |  | 

From patent US11497212B2, “Substituted thiophenyl uracils, salts thereof and the use thereof as herbicidal agents” (Syngenta Crop Protection AG, priority 2017, dated 2022)
